The source of these data is publication PMC12155096 (International Journal of Molecular Sciences, 2025).

The structures appear in SMILES notation. Structures can show the parent of a compound that is named as a salt. Where two headings read alike, the source gives them in different places.

The target of series [1] is T1, human CYP2D6 (Homo sapiens, UniProt P10635). The experiment in a line: biochemical.
Series [2] concerns the target T2, human CYP2C19 (Homo sapiens, UniProt P33261). The experiment in a line: biochemical. As to conditions: for AC50: CYP2C19 AC50 (half-maximal activity concentration).
Series [3] concerns the target T3, human CYP2C9 (Homo sapiens, UniProt P11712). The series is described as follows: biochemical.
Series [4] deals with T2, human CYP2C19. As to conditions: for CYP2C19 Efficacy (in parenthesis): human.
Series [5] deals with T4, human CYP1A2 (Homo sapiens, UniProt P05177).
T4 sequence (P05177 1-516): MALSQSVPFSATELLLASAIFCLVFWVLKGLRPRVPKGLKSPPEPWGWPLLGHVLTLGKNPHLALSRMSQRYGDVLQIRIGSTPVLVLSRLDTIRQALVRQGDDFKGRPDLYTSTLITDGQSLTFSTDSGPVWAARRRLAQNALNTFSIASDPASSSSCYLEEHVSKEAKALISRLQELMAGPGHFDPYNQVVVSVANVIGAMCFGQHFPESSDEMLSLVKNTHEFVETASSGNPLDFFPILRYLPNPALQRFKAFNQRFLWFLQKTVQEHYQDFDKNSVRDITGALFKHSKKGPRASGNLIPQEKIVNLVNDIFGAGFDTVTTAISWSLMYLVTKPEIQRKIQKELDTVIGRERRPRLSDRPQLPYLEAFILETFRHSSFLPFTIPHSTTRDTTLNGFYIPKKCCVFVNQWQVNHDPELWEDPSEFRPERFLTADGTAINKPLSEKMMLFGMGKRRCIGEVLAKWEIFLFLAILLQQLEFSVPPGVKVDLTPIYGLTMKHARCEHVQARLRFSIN

Series [6] has as its target T4, human CYP1A2. The series is described as follows: biochemical.
Series [7] addresses T3, human CYP2C9. Particulars: human.
Series [8] has as its target T1, human CYP2D6. As to conditions: human.
Where [9] appears, read: CYP2D6 AC50 (half-maximal activity concentration).
Where [10] appears, read: CYP2C9 AC50 (half-maximal activity concentration).
Setting [11] is: CYP2D6 IC50 (half-maximal inhibitory concentration).
Setting [12] is: CYP2C9 IC50 (half-maximal inhibitory concentration).
The mark [13] stands for this setting: CYP2C19 IC50 (half-maximal inhibitory concentration).

T3 sequence (P11712 whole entry): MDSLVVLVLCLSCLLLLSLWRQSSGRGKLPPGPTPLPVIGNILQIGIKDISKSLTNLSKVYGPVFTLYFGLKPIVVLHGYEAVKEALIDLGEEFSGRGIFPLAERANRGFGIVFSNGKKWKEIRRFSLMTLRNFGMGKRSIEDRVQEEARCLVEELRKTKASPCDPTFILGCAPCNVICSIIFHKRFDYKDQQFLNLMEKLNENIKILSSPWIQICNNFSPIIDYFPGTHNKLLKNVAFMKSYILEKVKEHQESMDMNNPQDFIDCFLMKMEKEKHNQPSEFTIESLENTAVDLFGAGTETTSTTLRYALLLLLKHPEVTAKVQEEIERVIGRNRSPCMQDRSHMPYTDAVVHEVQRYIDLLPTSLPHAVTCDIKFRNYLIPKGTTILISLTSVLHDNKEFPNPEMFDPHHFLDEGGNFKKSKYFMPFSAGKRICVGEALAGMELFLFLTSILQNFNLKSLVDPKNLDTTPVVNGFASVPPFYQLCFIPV
T1 sequence (P10635 whole entry): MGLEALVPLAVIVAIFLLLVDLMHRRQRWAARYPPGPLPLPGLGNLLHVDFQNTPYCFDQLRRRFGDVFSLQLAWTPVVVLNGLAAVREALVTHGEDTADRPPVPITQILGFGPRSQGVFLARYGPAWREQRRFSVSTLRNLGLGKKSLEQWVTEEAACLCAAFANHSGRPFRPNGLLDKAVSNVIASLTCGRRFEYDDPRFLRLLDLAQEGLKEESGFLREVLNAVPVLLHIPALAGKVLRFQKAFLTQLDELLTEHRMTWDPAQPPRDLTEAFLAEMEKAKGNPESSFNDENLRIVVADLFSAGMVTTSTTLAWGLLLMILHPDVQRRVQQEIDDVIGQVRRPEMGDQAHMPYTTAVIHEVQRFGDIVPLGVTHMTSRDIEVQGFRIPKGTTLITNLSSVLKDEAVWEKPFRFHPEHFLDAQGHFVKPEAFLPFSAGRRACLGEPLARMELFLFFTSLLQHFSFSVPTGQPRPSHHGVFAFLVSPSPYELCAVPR
T2 sequence (P33261 whole entry): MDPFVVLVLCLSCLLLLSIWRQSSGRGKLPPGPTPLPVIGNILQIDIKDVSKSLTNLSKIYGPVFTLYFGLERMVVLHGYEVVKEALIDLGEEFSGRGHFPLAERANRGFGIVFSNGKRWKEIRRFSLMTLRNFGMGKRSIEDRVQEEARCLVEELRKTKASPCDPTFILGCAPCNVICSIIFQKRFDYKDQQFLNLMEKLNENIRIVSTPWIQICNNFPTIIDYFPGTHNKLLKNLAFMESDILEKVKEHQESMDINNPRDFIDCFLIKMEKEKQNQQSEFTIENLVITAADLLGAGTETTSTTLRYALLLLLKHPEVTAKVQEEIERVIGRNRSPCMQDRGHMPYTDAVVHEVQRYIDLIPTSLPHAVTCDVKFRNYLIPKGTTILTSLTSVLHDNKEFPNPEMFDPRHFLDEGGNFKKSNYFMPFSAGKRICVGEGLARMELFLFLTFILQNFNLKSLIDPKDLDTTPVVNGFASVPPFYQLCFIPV

Turning to `CC1=C(C(=O)OC(C)C)C(c2cccc([N+](=O)[O-])c2)C(C(=O)OC2CN(C(c3ccccc3)c3ccccc3)C2)=C(N)N1` (stereo not shown) [Azelnidipine], the IC50 was 13.2 ± 3.2 µM against human CYP2D6 [1], 2.43 ± 0.68 µM against human CYP2C19 [2] and 1.56 ± 0.18 µM at human CYP2C9 [3].
In the case of `N=C(N)NC(=O)Cc1c(Cl)cccc1Cl` [Guanfacine hydrochloride], the half-maximal activity concentration (AC50) at human CYP2D6 [1] (setting [9]) stood at 25.8 µM; on human CYP2C9 [3] (setting [10]), 27.3 µM. In addition, the “CYP2C19 AC50 (half-maximal activity concentration)” value on human CYP2C19 [4] is given as “Inactive”. Also, at human CYP1A2 [5], the “CYP1A2 AC50 (half-maximal activity concentration)” value is reported as “Inactive”.
For the compound `CN1CCC(=C2c3ccccc3CC(=O)c3sccc32)CC1` [Ketotifen], the values for the AC50 on human CYP2D6 [1] (setting [9]) and on human CYP2C19 [2] were 2.2 µM and 37.5 µM, respectively.
As to `CCC(=O)O[C@]1(C(=O)SCF)[C@H](C)C[C@H]2[C@@H]3C[C@H](F)C4=CC(=O)C=C[C@]4(C)[C@@]3(F)[C@@H](O)C[C@@]21C` [Fluticasone propionate], the figures for the IC50 at human CYP2D6 [1] (setting [11]) and at human CYP2C9 [3] (setting [12]) were 13 µM and 4.84 µM, respectively.
As to `Clc1ccc(C(c2ccccc2Cl)C(Cl)Cl)cc1` (stereo not shown) [o,p'-DDD], the AC50 is 31.2 µM on human CYP2D6 [1] (setting [9]), 1.05 µM at human CYP2C19 [2] and 16.8 µM at human CYP2C9 [3] (setting [10]).
Turning to `CC(C)[N+](C)(CCOC(=O)C1c2ccccc2Oc2ccccc21)C(C)C` [Propantheline bromide], half-maximal activity on human CYP2D6 [1] (setting [9]) (AC50) was put at 0.19 µM. The compound also registered a 50% inhibitory concentration (IC50) against human CYP2D6 [1] (setting [11]) of 0.09 µM.
For `O=C1CC2(CCCC2)CC(=O)N1CCNCC1COc2ccccc2O1` (stereo not shown) [Binospirone mesylate], the half-inhibitory concentration (IC50) on human CYP2D6 [1] stood at 0.29 ± 0.02 µM; against human CYP2C19 [2], 8.77 ± 1.42 µM; at human CYP2C9 [3] it was 23.5 ± 5.69 µM.
As to `COC(=O)C1=C(C)NC(C)=C(C(=O)OC(C)(C)CN(C)CCC(c2ccccc2)c2ccccc2)C1c1cccc([N+](=O)[O-])c1` (stereo not shown) [Lercanidipine hydrochloride], the concentration for half-maximal inhibition (IC50) against human CYP2D6 [1] amounted to 4.44 ± 1.02 µM; on human CYP1A2 [6], 32.8 ± 2.67 µM; against human CYP2C9 [3] it was 2.89 ± 0.52 µM.
Turning to `COc1cc(C(C)=O)ccc1OCCCN1CCC(c2noc3cc(F)ccc23)CC1` [Iloperidone], the concentration for half-maximal inhibition (IC50) on human CYP2D6 [1] was 10.1 ± 2.8 µM; on human CYP2C9 [3], 22.9 ± 14.1 µM.
On to `CC(N/C(=N\C#N)Nc1ccncc1)C(C)(C)C` (stereo not shown) [Pinacidil monohydrate], for which the “CYP2C9 Efficacy (in parenthesis)” value on human CYP2C9 [7] is 13.86 ± 1.59 (-102 ± 3) %. Further, the 50% inhibitory concentration (IC50) against human CYP2D6 [1] (setting [11]) amounted to 25.3 µM; on human CYP2C19 [2] (setting [13]) it was 2.06 µM; against human CYP2C9 [3] (setting [12]) it was 13.9 µM. The “CYP2D6 Efficacy (in parenthesis)” value at human CYP2D6 [8] is on record as 25.27 ± 7.04 (-50 ± 9) %. The “CYP2C19 Efficacy (in parenthesis)” value at human CYP2C19 [4] is recorded as 2.06 ± 0.47 (-116 ± 6) %.
Turning to `C=C(C)[C@H]1Cc2c(ccc3c2O[C@@H]2COc4cc(OC)c(OC)cc4[C@@H]2C3=O)O1` [Rotenone], the IC50 was 37.7 µM against human CYP2D6 [1], 1.04 µM against human CYP2C19 [2] (setting [13]) and 9.2 µM on human CYP2C9 [3].
In the case of `C[C@@H]1C[C@H]2[C@@H]3CCC4=CC(=O)C=C[C@]4(C)[C@@]3(Cl)[C@@H](O)C[C@]2(C)[C@@]1(OC(=O)c1ccco1)C(=O)CCl` [Mometasone furoate, reference compound], the IC50 at human CYP2D6 [1] (setting [11]) is 3.75 µM; at human CYP2C19 [2] (setting [13]), 7.97 µM; at human CYP2C9 [3] (setting [12]) it was 8.08 µM.
Taken in the same sequence, the figures for `CCCC(=O)O[C@]1(C(=O)CCl)[C@@H](C)C[C@H]2[C@@H]3CCC4=CC(=O)C=C[C@]4(C)[C@@]3(F)C(=O)C[C@@]21C` [Clobetasone butyrate] were 7.77 µM, 8.43 µM and 17.6 µM.
Consider `CC1(C)CCC(=Cc2ccc(Cl)cc2)C1(O)Cn1cncn1` (stereo not shown) [Triticonazole], for which, at human CYP2C9 [7], the “CYP2C9 Efficacy (in parenthesis)” value is reported as 1.47 ± 0.17 (-105 ± 3) %. Moreover, the results for the half-maximal inhibitory concentration (IC50) on human CYP2D6 [1] (setting [11]), at human CYP2C19 [2] (setting [13]) and on human CYP2C9 [3] (setting [12]) were 9.5 µM, 0.34 µM and 1.47 µM, respectively. On human CYP2D6 [8], the “CYP2D6 Efficacy (in parenthesis)” value is given as 9.5 ± 2.8 (-97 ± 3) %. Further, the “CYP2C19 Efficacy (in parenthesis)” value at human CYP2C19 [4] was 0.34 ± 0.15 (-129 ± 16) %.
On human CYP2D6 [1] (setting [9]), `COc1ccccc1N1CCN(CCCNc2cc(=O)n(C)c(=O)n2C)CC1` [Urapidil hydrochloride] returned an AC50 of 14 µM.
For the compound `CCCc1nn(C)c2c(=O)[nH]c(-c3cc(S(=O)(=O)N4CCN(C)CC4)ccc3OCC)nc12` [Sildenafil citrate], the IC50 against human CYP2D6 [1] (setting [11]) came out at 31.7 µM; on human CYP2C19 [2] (setting [13]), 30.4 µM; at human CYP2C9 [3] (setting [12]), 20.6 µM.
On human CYP2D6 [1] (setting [9]), `CC[N+](CC)(CC)CCOc1ccc(/C=C/c2ccccc2)cc1` [Stilonium iodide] yielded an AC50 of 15.5 µM.
Turning to `Cn1cc(C(=O)[C@@H]2CCc3nc[nH]c3C2)c2ccccc21` [Ramosetron hydrochloride], the results for the AC50 on human CYP2D6 [1], on human CYP1A2 [6] and on human CYP2C9 [3] were 17.4 µM, 17.4 µM and 10.7 ± 4.21 µM, respectively.
Regarding `CN1CCC(=C2c3ccccc3C=Cc3ccccc32)CC1` [Cyproheptadine hydrochloride], the half-maximal activity concentration (AC50) on human CYP2D6 [1] (setting [9]) is 2.67 µM; on human CYP2C19 [2], 21.5 µM.
